Results from ChEMBL document CHEMBL1201862, “PubChem BioAssay data set” (2004).
Activity calls are given as the source filed them.

How the values were obtained:
Albumin = Albumin (Bos taurus, UniProt P02769); assay: Counterscreen for inhibitors of T-cell receptor (TCR)-CD3 interaction: Fluorescence-based biochemical high throughput dose response assay to identify inhibitors of T-cell receptor (TCR)-CD3 interaction using a TAMRA-labeled BSA probe.; type: functional
[1] = general mammalian cell viability loss – inhibitor set, cherry-pick, set 2, cytotoxicity control for miR-122 modulator project, dose response (AID 720697); type: functional, cell-based
[2] = NIH-3T3 fibroblast cytotoxicity, dose response, cytotoxicity control, cell-based, fluorescence, Alamar Blue, secondary assay (AID 2327); type: functional;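 further: NIH-3T3 mouse fibroblasts cultured with fluconazole at 8 µg/mL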
[3] = fluconazole-exposed Candida albicans growth modulators – fluorescence, retest, confirmation (AID 2467); type: functional, cell-based
[4] = target: T1, Short transient receptor potential channel 4 (Mus musculus, UniProt Q9QUQ5); assay: calcium entry via TRPC4 opening agents – cell-based, HEK293 TRPC4/mu-opioid, Fluo-4 calcium, dose response (AID 434937); type: functional
T1 sequence (Q9QUQ5 whole entry): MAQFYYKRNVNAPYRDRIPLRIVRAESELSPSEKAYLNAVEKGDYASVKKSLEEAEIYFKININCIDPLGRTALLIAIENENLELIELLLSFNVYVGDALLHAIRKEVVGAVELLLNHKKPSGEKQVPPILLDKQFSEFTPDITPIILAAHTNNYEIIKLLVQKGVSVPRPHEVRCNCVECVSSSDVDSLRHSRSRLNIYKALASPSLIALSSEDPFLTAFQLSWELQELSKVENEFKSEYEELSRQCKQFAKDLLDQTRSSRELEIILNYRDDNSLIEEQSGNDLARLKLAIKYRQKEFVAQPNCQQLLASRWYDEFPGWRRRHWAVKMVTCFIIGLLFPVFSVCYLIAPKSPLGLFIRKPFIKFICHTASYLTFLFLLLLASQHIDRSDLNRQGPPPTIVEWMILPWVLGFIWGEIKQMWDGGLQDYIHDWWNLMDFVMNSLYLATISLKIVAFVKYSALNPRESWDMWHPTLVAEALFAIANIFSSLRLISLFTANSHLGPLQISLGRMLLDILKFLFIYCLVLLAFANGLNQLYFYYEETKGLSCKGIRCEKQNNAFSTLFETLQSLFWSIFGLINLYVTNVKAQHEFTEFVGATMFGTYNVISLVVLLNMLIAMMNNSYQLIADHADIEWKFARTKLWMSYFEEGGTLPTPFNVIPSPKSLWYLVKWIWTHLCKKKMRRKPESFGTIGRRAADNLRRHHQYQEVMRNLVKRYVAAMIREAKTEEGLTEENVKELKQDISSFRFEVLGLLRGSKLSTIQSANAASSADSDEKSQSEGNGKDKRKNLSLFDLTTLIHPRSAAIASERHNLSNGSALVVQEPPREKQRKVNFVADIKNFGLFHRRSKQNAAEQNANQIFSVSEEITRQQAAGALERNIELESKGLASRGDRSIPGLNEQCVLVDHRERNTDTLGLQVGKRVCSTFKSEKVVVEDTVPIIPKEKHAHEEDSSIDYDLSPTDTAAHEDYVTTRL

[5] = target: T2, High affinity choline transporter 1 (Homo sapiens, UniProt Q9GZV3); assay: human choline transporter blockers, potency – cell-based, 5-point CRC, membrane potential dye, dose response (AID 504840); type: functional
T2 sequence (Q9GZV3 whole entry): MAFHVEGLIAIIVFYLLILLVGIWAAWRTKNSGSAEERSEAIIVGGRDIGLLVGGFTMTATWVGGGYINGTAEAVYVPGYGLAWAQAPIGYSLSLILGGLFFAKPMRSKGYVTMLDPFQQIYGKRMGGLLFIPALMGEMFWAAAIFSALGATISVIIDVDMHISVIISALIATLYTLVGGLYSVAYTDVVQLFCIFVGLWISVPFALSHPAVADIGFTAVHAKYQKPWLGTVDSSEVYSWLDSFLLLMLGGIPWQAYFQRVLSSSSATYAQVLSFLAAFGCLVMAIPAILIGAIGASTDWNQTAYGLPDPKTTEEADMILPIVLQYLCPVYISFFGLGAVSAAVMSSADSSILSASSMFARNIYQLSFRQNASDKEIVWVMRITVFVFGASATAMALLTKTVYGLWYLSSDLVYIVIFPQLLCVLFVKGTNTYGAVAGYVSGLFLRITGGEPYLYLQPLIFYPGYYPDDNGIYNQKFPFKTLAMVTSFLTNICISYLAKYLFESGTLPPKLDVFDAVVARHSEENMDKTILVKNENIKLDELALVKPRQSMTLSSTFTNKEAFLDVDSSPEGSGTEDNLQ

[6] = target: T2, High affinity choline transporter 1; assay: human choline transporter blockers, potency – cell-based, 10-point CRC, membrane potential dye, dose response (AID 588401); type: functional;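 further: membrane potential dye fluorescence of choline-evoked depolarization via CHT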
[7] = target: T2, High affinity choline transporter 1; assay: human choline transporter radiolabel uptake blockers – cell-based, 3H-choline uptake, CHT LV-AA trafficking mutant, CRC, dose response (AID 602208); type: functional
[8] = target: T3, Methionyl-tRNA synthetase, putative (Trypanosoma brucei brucei, UniProt Q38C91); type: functional, Trypanosoma brucei brucei strain 927/4 GUTat10.1
[9] = Counterscreen for inhibitors of Trypanosoma brucei methionyl tRNA synthetase (MetRS): Luminescence-based cell-based high throughput dose response assay to identify compounds that are cytotoxic to Jurkat human T lymphocyte cells.; type: functional
[10] = target: T3, Methionyl-tRNA synthetase, putative; type: functional, Trypanosoma brucei brucei strain 927/4 GUTat10.1; remark: listed apart in the source
[11] = microbe, parasite or virus in culture; type: functional; settings: Mycobacterium tuberculosis
[12] = target: T4, Low molecular weight phosphotyrosine protein phosphatase (Homo sapiens, UniProt P24666); type: functional; settings: read-out: IC50_Mean
[13] = target: T4, Low molecular weight phosphotyrosine protein phosphatase; type: functional; settings: read-out: IC50_Mean; remark: listed apart in the source
[14] = target: Fructose-bisphosphate aldolase (Mycobacterium tuberculosis, UniProt P9WQA3); assay: Fluorescence-based biochemical high throughput dose response assay for inhibitors of the fructose-bisphosphate aldolase (FBA) of M. tuberculosis.; type: functional
Protein Wnt-3a = Protein Wnt-3a (Mus musculus, UniProt P27467); assay: antagonism of Wnt3a pathway luciferase reporter – Wnt-LIGHT cells, luminescence, selectivity assay for Gli-SUFU antagonist project, dose response (AID 651570); type: functional; settings: read-out: IC50_Mean;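 further: Wnt-LIGHT reporter cells stimulated with conditioned medium from Wnt3a-producing cells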
[15] = target: T5, Probable nicotinate-nucleotide adenylyltransferase (Staphylococcus aureus (strain N315), UniProt P65502); type: functional, Staphylococcus aureus subsp. aureus N315;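 on IC50 Mean: confirmatory dose-response retesting of NadD inhibitor hits first found in an ultra-high-throughput screen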
[16] = target: T5, Probable nicotinate-nucleotide adenylyltransferase; type: functional, Staphylococcus aureus subsp. aureus N315; settings: read-out: IC50_Mean
[17] = Fluorescence-based cell-based high throughput dose response assay for inhibitors of the interaction of nucleotide-binding oligomerization domain containing 2 (NOD2) and the receptor-interacting serine-threonine kinase 2 (RIPK2).; type: functional; settings: Homo sapiens
[18] = target: T6, Rac GTPase-activating protein 1 (Homo sapiens, UniProt Q9H0H5); assay: blockers of MgcRacGAP-driven Rac1 GTP hydrolysis – biochemical, ADP Hunter fluorescence, primary and confirmatory, confirmation (AID 624330); type: functional
T6 sequence (Q9H0H5 whole entry): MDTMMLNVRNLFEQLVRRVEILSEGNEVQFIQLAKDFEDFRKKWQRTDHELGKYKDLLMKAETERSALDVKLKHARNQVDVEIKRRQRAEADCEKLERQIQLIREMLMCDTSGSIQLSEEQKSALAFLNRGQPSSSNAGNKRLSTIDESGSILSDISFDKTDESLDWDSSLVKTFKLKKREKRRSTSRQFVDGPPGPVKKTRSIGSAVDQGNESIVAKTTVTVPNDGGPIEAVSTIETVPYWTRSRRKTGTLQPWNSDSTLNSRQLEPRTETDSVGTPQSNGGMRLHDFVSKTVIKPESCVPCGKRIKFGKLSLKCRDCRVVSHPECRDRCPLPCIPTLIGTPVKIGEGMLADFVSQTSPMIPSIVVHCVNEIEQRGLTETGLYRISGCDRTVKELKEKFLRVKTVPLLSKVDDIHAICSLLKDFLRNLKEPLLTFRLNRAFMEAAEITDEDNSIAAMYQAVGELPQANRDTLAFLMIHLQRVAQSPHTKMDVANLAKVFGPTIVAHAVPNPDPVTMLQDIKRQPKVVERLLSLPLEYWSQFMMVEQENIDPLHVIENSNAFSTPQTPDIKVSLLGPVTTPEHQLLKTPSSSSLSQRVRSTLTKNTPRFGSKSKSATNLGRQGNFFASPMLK

T5 sequence (P65502 whole entry): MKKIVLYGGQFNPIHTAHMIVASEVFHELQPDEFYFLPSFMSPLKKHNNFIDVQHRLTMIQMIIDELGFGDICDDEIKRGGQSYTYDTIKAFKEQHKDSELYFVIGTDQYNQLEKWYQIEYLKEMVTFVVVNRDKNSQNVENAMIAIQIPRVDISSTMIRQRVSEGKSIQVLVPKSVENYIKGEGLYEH
T3 sequence (Q38C91 whole entry): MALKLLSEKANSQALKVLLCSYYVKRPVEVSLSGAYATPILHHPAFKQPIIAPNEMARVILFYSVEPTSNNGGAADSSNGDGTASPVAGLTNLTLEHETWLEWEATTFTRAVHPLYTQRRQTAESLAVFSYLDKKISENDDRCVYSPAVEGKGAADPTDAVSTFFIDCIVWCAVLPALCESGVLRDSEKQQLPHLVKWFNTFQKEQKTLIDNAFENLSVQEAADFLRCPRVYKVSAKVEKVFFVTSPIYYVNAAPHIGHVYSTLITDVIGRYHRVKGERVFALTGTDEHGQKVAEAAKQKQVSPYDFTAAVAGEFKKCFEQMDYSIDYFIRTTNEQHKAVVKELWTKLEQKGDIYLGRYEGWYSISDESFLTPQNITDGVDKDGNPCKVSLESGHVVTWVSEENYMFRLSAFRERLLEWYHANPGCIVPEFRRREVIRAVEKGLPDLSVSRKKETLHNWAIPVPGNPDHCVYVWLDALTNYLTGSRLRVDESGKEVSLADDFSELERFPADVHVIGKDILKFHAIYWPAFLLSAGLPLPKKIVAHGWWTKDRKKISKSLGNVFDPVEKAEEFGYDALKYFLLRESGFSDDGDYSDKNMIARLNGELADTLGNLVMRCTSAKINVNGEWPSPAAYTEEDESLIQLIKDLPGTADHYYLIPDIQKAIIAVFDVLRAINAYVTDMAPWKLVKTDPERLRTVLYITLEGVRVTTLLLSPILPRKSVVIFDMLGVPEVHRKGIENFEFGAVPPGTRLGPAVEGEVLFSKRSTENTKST
T4 sequence (P24666 whole entry): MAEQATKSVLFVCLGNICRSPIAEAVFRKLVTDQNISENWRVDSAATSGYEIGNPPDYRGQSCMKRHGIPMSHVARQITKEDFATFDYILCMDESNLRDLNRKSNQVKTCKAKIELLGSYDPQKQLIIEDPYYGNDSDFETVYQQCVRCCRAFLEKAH
Chain of Albumin (P02769 whole entry): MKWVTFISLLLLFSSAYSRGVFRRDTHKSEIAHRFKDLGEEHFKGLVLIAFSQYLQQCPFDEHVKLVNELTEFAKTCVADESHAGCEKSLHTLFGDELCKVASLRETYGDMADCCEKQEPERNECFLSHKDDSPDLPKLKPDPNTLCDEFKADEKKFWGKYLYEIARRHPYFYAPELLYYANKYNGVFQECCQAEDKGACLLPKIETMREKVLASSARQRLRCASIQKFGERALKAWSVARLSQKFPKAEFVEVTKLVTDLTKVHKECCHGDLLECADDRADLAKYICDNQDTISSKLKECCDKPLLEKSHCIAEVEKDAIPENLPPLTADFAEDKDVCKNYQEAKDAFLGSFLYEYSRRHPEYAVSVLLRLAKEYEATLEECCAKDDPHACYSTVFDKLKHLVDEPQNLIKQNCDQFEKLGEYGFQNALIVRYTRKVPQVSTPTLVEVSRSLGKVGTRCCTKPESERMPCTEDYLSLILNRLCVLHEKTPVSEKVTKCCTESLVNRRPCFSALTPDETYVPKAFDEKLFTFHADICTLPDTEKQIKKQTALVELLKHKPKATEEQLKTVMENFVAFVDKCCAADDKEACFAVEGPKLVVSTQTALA
Chain of Fructose-bisphosphate aldolase (P9WQA3 whole entry): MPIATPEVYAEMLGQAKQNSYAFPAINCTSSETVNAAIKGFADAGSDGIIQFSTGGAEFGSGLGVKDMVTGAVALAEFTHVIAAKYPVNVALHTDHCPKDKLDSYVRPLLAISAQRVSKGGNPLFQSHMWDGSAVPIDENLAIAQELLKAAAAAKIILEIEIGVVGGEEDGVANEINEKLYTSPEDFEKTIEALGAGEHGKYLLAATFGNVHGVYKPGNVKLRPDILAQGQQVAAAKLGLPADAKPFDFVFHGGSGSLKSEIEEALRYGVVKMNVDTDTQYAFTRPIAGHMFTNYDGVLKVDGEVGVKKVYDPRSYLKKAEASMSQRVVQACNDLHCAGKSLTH
Chain of Protein Wnt-3a (P27467 whole entry): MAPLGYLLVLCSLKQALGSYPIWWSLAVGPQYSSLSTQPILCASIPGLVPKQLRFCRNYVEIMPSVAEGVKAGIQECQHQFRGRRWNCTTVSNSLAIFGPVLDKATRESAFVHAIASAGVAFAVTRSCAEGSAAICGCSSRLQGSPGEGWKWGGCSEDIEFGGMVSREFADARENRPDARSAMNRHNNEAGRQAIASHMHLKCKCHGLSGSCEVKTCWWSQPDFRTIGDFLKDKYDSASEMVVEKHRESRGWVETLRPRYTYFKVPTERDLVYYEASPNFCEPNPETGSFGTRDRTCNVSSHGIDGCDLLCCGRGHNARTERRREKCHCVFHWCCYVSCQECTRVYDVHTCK

Structure (SMILES): O=C(NNC(=S)NC1CCCCC1)c1ccccc1O
- IC50 (Albumin): > 94.1 µM (inactive)

Structure (SMILES): CN(C(=O)c1ccccc1Cl)C1CCCCC1
- AC50 [1]: 0.346 µM (active)

Structure (SMILES): CC(C)(C)C(=O)NC(=S)NNC(=O)C(c1ccccc1)c1ccccc1
- EC50 [2]: 5.35 µM (inconclusive)
- EC50 [3]: 1.2 µM (active)
- EC50 [4]: 1.06 µM (active)
- IC50 [5]: 6.48 µM (active)
- IC50 [6]: 4.01 µM (active)

Structure (SMILES): O=C(NC1CCCCC1)c1ccc(OC2CCN(Cc3ccccn3)CC2)cc1
- IC50 [5]: 1.65 µM (active)
- IC50 [6]: 0.891 µM (active)
- IC50 [7]: 8.43 µM (active)

Structure (SMILES): Cc1cc(Cn2nc(-c3ccccc3)cc2C(=O)NCc2cccc(Br)c2)on1
- IC50 [8]: 5.75 µM (active)
- IC50 [9]: 83.3 µM (inactive)
- IC50 [10]: 2.08 µM (active)

Structure (SMILES): CC(C)Oc1ccc(-c2nc(NCC3CCCO3)c3ccccc3n2)cc1 (configuration not stated)
- CC50 [11]: 29.2 µM (active)
- IC50 [12]: 24.2 µM (inactive)
- IC50 [13]: 18.1 µM (active)

Structure (SMILES): CNC(=O)c1cc2cc(OC)ccc2oc1=O
- IC50 [14]: 2.13 µM (active)

Structure (SMILES): Cc1nnsc1C(=O)Nc1ccc(S(=O)(=O)N2CCC(C)CC2)cc1
- IC50 (Protein Wnt-3a): 27.1 µM (inactive)

Structure (SMILES): Cc1ccc(C2(SCC(N)C(=O)O)c3ccccc3-c3ccccc32)cc1 (configuration not stated)
- IC50 [15]: 11 µM (active)
- IC50 [16]: 32.5 µM (active)

Structure (SMILES): O=C1/C(=C\c2ccccc2)CN(C(=O)CCN2CCCCC2)C/C1=C/c1ccccc1
- IC50 [17]: 2.89 µM (active)
- IC50 [18]: 84.9 µM (active)
